Laboratory results reported in paper PMC6530635, “A Novel Single-Site Mutation in the Catalytic Domain of Protoporphyrinogen Oxidase IX (PPO) Confers Resistance to PPO-Inhibiting Herbicides” (Frontiers in Plant Science, 2019).
Read-outs that look alike come from different tables or passages of the source.

Assays:
[1] = target: recombinant Amaranthus tuberculatus PPO2 wild-type enzyme (Amaranthus tuberculatus, UniProt Q0NZW9); test: biochemical
[2] = system: Amaranthus palmeri R39P population; type: in vivo; details: for Frequency of resistant plants: R39P F1 population, 2X recommended dose, 21 DAT, 25 seedlings
[3] = system: Amaranthus palmeri MIS-D population; design: method as in Salas-Perez et al., 2017; details: ref Salas-Perez et al., 2017, cited from earlier work; for Response of MIS-D to 1X dose / Frequency of resistant plants: MIS-D field population
[4] = system: Amaranthus palmeri (Palmer amaranth) populations MIS-D, R39P, R43P and SS; type: in vivo; details: visual injury 21 DAT, foliar spray

Chain of recombinant Amaranthus tuberculatus PPO2 wild-type enzyme (Q0NZW9 1-534): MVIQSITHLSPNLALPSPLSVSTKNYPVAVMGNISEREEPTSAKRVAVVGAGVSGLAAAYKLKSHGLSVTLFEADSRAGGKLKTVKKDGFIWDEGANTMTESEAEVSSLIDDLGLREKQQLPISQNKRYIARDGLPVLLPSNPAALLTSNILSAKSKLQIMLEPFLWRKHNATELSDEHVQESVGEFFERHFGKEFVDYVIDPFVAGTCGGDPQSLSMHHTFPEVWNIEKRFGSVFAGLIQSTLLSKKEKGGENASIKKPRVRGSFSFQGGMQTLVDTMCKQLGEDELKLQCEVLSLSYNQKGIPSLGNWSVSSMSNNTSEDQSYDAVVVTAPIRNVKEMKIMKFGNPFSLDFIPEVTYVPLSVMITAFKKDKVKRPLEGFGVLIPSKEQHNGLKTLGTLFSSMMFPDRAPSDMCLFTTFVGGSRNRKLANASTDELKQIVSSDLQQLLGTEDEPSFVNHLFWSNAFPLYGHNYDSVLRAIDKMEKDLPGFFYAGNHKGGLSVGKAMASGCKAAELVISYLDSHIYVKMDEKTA

| SMILES | Frequency of resistant plants [2] [%] | IC50 [1] [nM] | Response of MIS-D to 1X dose [3] | Frequency of resistant plants ([3]; 1X dose) [%] | also measured |
| --- | --- | --- | --- | --- | --- |
| C#CCN(C)c1c(C#N)cnn1-c1nn2c(c1Cl)CCCC2 [Pyraclonil] |  |  |  |  | IC50 ([1]; read-out: Wild type sensitivity [IC50]): 1.39 nM |
| C#CCN1C(=O)COc2cc(F)c(N3C(=O)C4=C(CCCC4)C3=O)cc21 [Flumioxazin] | 60 | 0.039 | resistant | 40 | Frequency of resistant plants ([2]; listed as flumioxazin): ≥ 40% |
| O=C(O)c1cc(Oc2ccc(C(F)(F)F)cc2Cl)ccc1[N+](=O)[O-] [Acifluorfen] | 8 | 18.5 |  | 1 | Survival rate ([2]; in vivo): < 20%; Mortality ([3]; MIS-D, 1X dose): > 90% |
| COC(=O)CSc1cc(/N=c2\sc(=O)n3n2CCCC3)c(F)cc1Cl [Fluthiacet-methyl] |  | 0.669 | resistant |  |  |
| CCOC(=O)COc1cc(-c2nn(C)c(OC(F)F)c2Cl)c(F)cc1Cl [Pyraflufen-ethyl] |  | 0.0519 | resistant |  |  |
| Cc1nn(-c2cc(CC(Cl)C(=O)O)c(Cl)cc2F)c(=O)n1C(F)F (stereo not shown) [Carfentrazone] | 64 | 0.196 | resistant |  | Frequency of resistant plants ([2]; listed as carfentrazone): ≥ 40% |
| CC(C)Oc1cc(-n2nc(C(C)(C)C)oc2=O)c(Cl)cc1Cl [Oxadiazon] |  | 0.7 |  |  |  |
| Cc1nn(-c2cc(NS(C)(=O)=O)c(Cl)cc2Cl)c(=O)n1C(F)F [Sulfentrazone] |  | 17.5 |  |  |  |
| CS(=O)(=O)NC(=O)c1cc(Oc2ccc(C(F)(F)F)cc2Cl)ccc1[N+](=O)[O-] [Fomesafen] |  | 1.32 | resistant | 42 | Survival rate ([2]; R39P, 2X dose): < 20%; ED50 (dose causing 50% herbicide injury) ([4]; MIS-D field population, PPO-resistant): 124 (101–147) g ai ha^-1; ED50 (dose causing 50% herbicide injury) ([4]; R39P F1 population, PPO-resistant): 143 (122–165) g ai ha^-1; ED50 (dose causing 50% herbicide injury) ([4]; R43P F1 population, PPO-resistant): 187 (174–202) g ai ha^-1; ED50 (dose causing 50% herbicide injury) ([4]; SS population, PPO-sensitive): 12 (10–13) g ai ha^-1 |
| C=CCOC(=O)C(C)(C)OC(=O)c1cc(-n2c(=O)cc(C(F)(F)F)n(C)c2=O)ccc1Cl [Butafenacil] |  | 0.00896 |  |  |  |
| CC(C)N(C)S(=O)(=O)NC(=O)c1cc(-n2c(=O)cc(C(F)(F)F)n(C)c2=O)c(F)cc1Cl [Saflufenacil] |  |  |  |  | Survival rate ([2]; in vivo): < 20% |
| CCOC(=O)C(C)OC(=O)c1cc(Oc2ccc(C(F)(F)F)cc2Cl)ccc1[N+](=O)[O-] (stereo not shown) [Lactofen] | 40 | 0.056 | resistant | 23 | Frequency of resistant plants ([2]; listed as lactofen): ≥ 40% |
| CCOc1cc(Oc2ccc(C(F)(F)F)cc2Cl)ccc1[N+](=O)[O-] [Oxyfluorfen] |  | 0.0342 |  |  |  |
